In patent publication US20130183696A1, “METHODS OF USE AND KIT FOR MEASUREMENT OF LIPOPOLYSACCHARIDE WITH A TIME RESOLVED FLUORESCENCE BASED ASSAY” (priority 2010, published 2013):

Experiments:
[1] = cited from earlier work
[2] = molecular target: T1, recombinant rat A1 adenosine receptor (Rattus norvegicus, UniProt P25099); experiment: A1 adenosine receptor TRF Eu-GTP binding assay, standard curve for LPS; type: biochemical; settings: CHO cell membranes, Eu-GTP 10 nM, % basal activity; mean of 8-10 independent assays, LPS 10 pg/mL-100 ng/mL
T1 construct: purchased PerkinElmer, Waltham, Mass; host or cells: CHO cells (membranes)
T1 sequence (P25099 1-326): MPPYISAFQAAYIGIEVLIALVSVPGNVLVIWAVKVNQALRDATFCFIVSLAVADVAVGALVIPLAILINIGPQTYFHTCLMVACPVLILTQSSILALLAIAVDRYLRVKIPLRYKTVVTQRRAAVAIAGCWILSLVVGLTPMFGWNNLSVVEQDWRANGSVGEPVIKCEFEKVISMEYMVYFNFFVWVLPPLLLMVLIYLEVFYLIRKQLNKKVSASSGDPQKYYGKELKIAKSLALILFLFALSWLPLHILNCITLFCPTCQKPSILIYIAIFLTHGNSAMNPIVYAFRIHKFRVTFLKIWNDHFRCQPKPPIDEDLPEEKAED
Experimental: To generate a standard LPS/endotoxin standard curve membranes prepared from CHO cells (1 unit/well corresponding to approximately 20 μg of protein per well; PerkinElmer, Waltham, Mass.) expressing the recombinant rat A1 adenosine receptor are preincubated in an Acrowell filter plate (Pall Life Sciences, Ann Arbor, Mich.) in the presence of LPS/endotoxin (USP, Rockville, Md.) (0.01-750 ng/mL). The endotoxin stock solution is prepared by dissolving 10,000 endotoxin units (corresponding to 1000 ng) in 333 μL of endotoxin free water. […] Each assay point is evaluated in triplicate. […] Fluorescence in each well is determined with an Infinite F-200 PRO (Tecan, Grodig, Austria) using fluorescent top read with an excitation wavelength of 320 nm, emission wavelength of 620 nm, and gain setting of 109. Eu-GTP basal activity is calculated as the difference between total Eu-GTP bound and nonspecific Eu-GTP bound. Percent (%) basal is calculated as follows: [(test condition−nonspecific)/(basal activity)]*100. […] The standard curve is analyzed by nonlinear regression (GraphPad Prism, version 5, GraphPad Software, La Jolla, Calif.) using a sigmoidal dose-response curve with variable slope to determine EC50. Each standard curve represents a minimum of three independent experiments and final data are expressed as the mean±SEM. […]

| Substance | adverse side effect ([1]; in vivo) | reduction of absolute mortality compared to placebo ([1]; sepsis patients, definitive large clinical trials (Bernard et al., 2001)) [%] | sensitivity of the assay for LPS [2] [pg/mL] |
| --- | --- | --- | --- |
| drotrecogin alfa [Xigris, drotrecogin alfa [activated]] | serious adverse side effect of bleeding | 6 |  |
| lipopolysaccharide [LPS] |  |  | 10 |
